Measurements as given in PubChem BioAssay AID1963831 (Molecular Pharmacology Branch, DTP, NCI, 2024).

System: 889142-216-R-J1-PDC complex spheroid viability
Assay: Anticancer human tumor 889142-216-R-J1-PDC patient-derived bladder carcinoma cell line growth inhibition [POLQ]
Conditions: for IC50: curve of first compound; for viability, T/C: stronger effect = lower value
Summary of the method: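 Three-cell-type spheroids modelling solid tumor plus stroma served as the readout system; POL inhibitors were tested individually and in combination, concentration ranges set by clinical Cmax where known.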

[1] = second compound 0.0316 µM, first compound 0.0316 µM
[2] = second compound 0.0316 µM, first compound 0.1 µM
[3] = second compound 0.0316 µM, first compound 0.316 µM
[4] = second compound 0.0316 µM, first compound 1 µM
[5] = second compound 0.0316 µM, first compound 3.16 µM
[6] = second compound 0.0316 µM, first compound 10 µM
[7] = second compound 0.1 µM, first compound 0.0316 µM
[8] = second compound 0.1 µM, first compound 0.1 µM
[9] = second compound 0.1 µM, first compound 0.316 µM
[10] = second compound 0.1 µM, first compound 1 µM
[11] = second compound 0.1 µM, first compound 3.16 µM
[12] = second compound 0.1 µM, first compound 10 µM
[13] = second compound 0.316 µM, first compound 0.0316 µM
[14] = second compound 0.316 µM, first compound 0.1 µM
[15] = second compound 0.316 µM, first compound 0.316 µM
[16] = second compound 0.316 µM, first compound 1 µM
[17] = second compound 0.316 µM, first compound 3.16 µM
[18] = second compound 0.316 µM, first compound 10 µM
[19] = second compound 1 µM, first compound 0.0316 µM
[20] = second compound 1 µM, first compound 0.1 µM
[21] = second compound 1 µM, first compound 0.316 µM
[22] = second compound 1 µM, first compound 1 µM
[23] = second compound 1 µM, first compound 3.16 µM
[24] = second compound 1 µM, first compound 10 µM
[25] = second compound 3.16 µM, first compound 0.0316 µM
[26] = second compound 3.16 µM, first compound 0.1 µM
[27] = second compound 3.16 µM, first compound 0.316 µM
[28] = second compound 3.16 µM, first compound 1 µM
[29] = second compound 3.16 µM, first compound 3.16 µM
[30] = second compound 3.16 µM, first compound 10 µM
[31] = second compound 10 µM, first compound 0.0316 µM
[32] = second compound 10 µM, first compound 0.1 µM
[33] = second compound 10 µM, first compound 0.316 µM
[34] = second compound 10 µM, first compound 1 µM
[35] = second compound 10 µM, first compound 3.16 µM
[36] = second compound 10 µM, first compound 10 µM
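Note: spheroids exposed to compounds for seven days.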
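Throughout, for viability, T/C: 100% = DMSO vehicle control viability.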

Compound: C#Cc1c(F)ccc2cc(O)cc(-c3ncc4c(N5CC6CCC(C5)N6)nc(OCC56CCCN5CC(F)C6)nc4c3F)c12 (stereo not drawn) + COC1C(OC(N)=O)C(O)C(Oc2ccc3c(O)c(NC(=O)c4ccc(O)c(CC=C(C)C)c4)c(=O)oc3c2C)OC1(C)C
- IC50 (second compound 0.0316 µM): 5.38 µM
- IC50 (second compound 0.1 µM): 9.08 µM
- IC50 (second compound 0.316 µM): 5.82 µM
- IC50 (second compound 1 µM): 4.77 µM
- IC50 (second compound 3.16 µM): 5.53 µM
- IC50 (second compound 10 µM): 4.96 µM
- viability, T/C [1]: 99.2%
- viability, T/C [2]: 111%
- viability, T/C [3]: 66.3%
- viability, T/C [4]: 88.7%
- viability, T/C [5]: 63.7%
- viability, T/C [6]: 34.5%
- viability, T/C [7]: 108%
- viability, T/C [8]: 109%
- viability, T/C [9]: 77.4%
- viability, T/C [10]: 89.5%
- viability, T/C [11]: 81.5%
- viability, T/C [12]: 44.3%
- viability, T/C [13]: 119%
- viability, T/C [14]: 113%
- viability, T/C [15]: 82.5%
- viability, T/C [16]: 97.3%
- viability, T/C [17]: 76.1%
- viability, T/C [18]: 29.4%
- viability, T/C [19]: 89.1%
- viability, T/C [20]: 91.8%
- viability, T/C [21]: 95.4%
- viability, T/C [22]: 82%
- viability, T/C [23]: 62.8%
- viability, T/C [24]: 27.8%
- viability, T/C [25]: 96.9%
- viability, T/C [26]: 84.9%
- viability, T/C [27]: 95%
- viability, T/C [28]: 79.2%
- viability, T/C [29]: 78.2%
- viability, T/C [30]: 23.2%
- viability, T/C [31]: 103%
- viability, T/C [32]: 87.2%
- viability, T/C [33]: 76.1%
- viability, T/C [34]: 76.8%
- viability, T/C [35]: 71.5%
- viability, T/C [36]: 27.1%

Compound: CCc1cc2c(N3CCc4c(cc(Cn5ccnc5)cc4-c4cn(C)nc4C(F)(F)F)C3=O)cc(C)nc2c(OC)n1 + COC1C(OC(N)=O)C(O)C(Oc2ccc3c(O)c(NC(=O)c4ccc(O)c(CC=C(C)C)c4)c(=O)oc3c2C)OC1(C)C
- IC50 (second compound 0.0316 µM): > 10 µM
- IC50 (second compound 0.1 µM): > 10 µM
- IC50 (second compound 0.316 µM): > 10 µM
- IC50 (second compound 1 µM): > 10 µM
- IC50 (second compound 3.16 µM): > 10 µM
- IC50 (second compound 10 µM): > 10 µM
- viability, T/C [1]: 112%
- viability, T/C [2]: 124%
- viability, T/C [3]: 113%
- viability, T/C [4]: 97%
- viability, T/C [5]: 79.9%
- viability, T/C [6]: 68.6%
- viability, T/C [7]: 130%
- viability, T/C [8]: 115%
- viability, T/C [9]: 101%
- viability, T/C [10]: 101%
- viability, T/C [11]: 85.7%
- viability, T/C [12]: 58.2%
- viability, T/C [13]: 120%
- viability, T/C [14]: 132%
- viability, T/C [15]: 107%
- viability, T/C [16]: 107%
- viability, T/C [17]: 92.9%
- viability, T/C [18]: 67.7%
- viability, T/C [19]: 126%
- viability, T/C [20]: 123%
- viability, T/C [21]: 131%
- viability, T/C [22]: 105%
- viability, T/C [23]: 74.4%
- viability, T/C [24]: 61.9%
- viability, T/C [25]: 112%
- viability, T/C [26]: 106%
- viability, T/C [27]: 137%
- viability, T/C [28]: 98.4%
- viability, T/C [29]: 81.9%
- viability, T/C [30]: 55.1%
- viability, T/C [31]: 119%
- viability, T/C [32]: 102%
- viability, T/C [33]: 111%
- viability, T/C [34]: 92.2%
- viability, T/C [35]: 85.8%
- viability, T/C [36]: 62.8%

Compound: COc1cc2cc(C(=O)CCC(=O)O)sc2cc1OC + COC1C(OC(N)=O)C(O)C(Oc2ccc3c(O)c(NC(=O)c4ccc(O)c(CC=C(C)C)c4)c(=O)oc3c2C)OC1(C)C
- IC50 (second compound 0.0316 µM): > 10 µM
- IC50 (second compound 0.1 µM): > 10 µM
- IC50 (second compound 0.316 µM): > 10 µM
- IC50 (second compound 1 µM): > 10 µM
- IC50 (second compound 3.16 µM): > 10 µM
- IC50 (second compound 10 µM): > 10 µM
- viability, T/C [1]: 95.1%
- viability, T/C [2]: 93%
- viability, T/C [3]: 82.4%
- viability, T/C [4]: 114%
- viability, T/C [5]: 109%
- viability, T/C [6]: 70%
- viability, T/C [7]: 103%
- viability, T/C [8]: 106%
- viability, T/C [9]: 102%
- viability, T/C [10]: 96.9%
- viability, T/C [11]: 92.5%
- viability, T/C [12]: 81.1%
- viability, T/C [13]: 118%
- viability, T/C [14]: 120%
- viability, T/C [15]: 116%
- viability, T/C [16]: 90.6%
- viability, T/C [17]: 110%
- viability, T/C [18]: 83.6%
- viability, T/C [19]: 113%
- viability, T/C [20]: 106%
- viability, T/C [21]: 121%
- viability, T/C [22]: 113%
- viability, T/C [23]: 118%
- viability, T/C [24]: 83.9%
- viability, T/C [25]: 91.2%
- viability, T/C [26]: 113%
- viability, T/C [27]: 103%
- viability, T/C [28]: 102%
- viability, T/C [29]: 111%
- viability, T/C [30]: 101%
- viability, T/C [31]: 103%
- viability, T/C [32]: 93.2%
- viability, T/C [33]: 111%
- viability, T/C [34]: 92.8%
- viability, T/C [35]: 103%
- viability, T/C [36]: 88.2%

Compound: COc1cccc2c1C(=O)c1c(O)c3c(c(O)c1C2=O)CC(O)(C(=O)CO)CC3OC1CC(N)C(O)C(C)O1 (stereo not drawn) + Cc1cccc(N(C)C(=O)C2C(O)CCN2c2nc(C)cc(C(F)(F)F)c2C#N)c1
- IC50 (second compound 0.0316 µM): 0.244 µM
- IC50 (second compound 0.1 µM): 0.148 µM
- IC50 (second compound 0.316 µM): 0.15 µM
- IC50 (second compound 1 µM): 0.196 µM
- IC50 (second compound 3.16 µM): 0.183 µM
- IC50 (second compound 10 µM): 0.135 µM
- viability, T/C [1]: 70.9%
- viability, T/C [2]: 69.3%
- viability, T/C [3]: 44.2%
- viability, T/C [4]: 2.17%
- viability, T/C [5]: 0.48%
- viability, T/C [6]: 1.56%
- viability, T/C [7]: 77%
- viability, T/C [8]: 56.6%
- viability, T/C [9]: 34.7%
- viability, T/C [10]: 2.14%
- viability, T/C [11]: 1.04%
- viability, T/C [12]: 1.26%
- viability, T/C [13]: 57.3%
- viability, T/C [14]: 59.7%
- viability, T/C [15]: 35.2%
- viability, T/C [16]: 4.5%
- viability, T/C [17]: 0.81%
- viability, T/C [18]: 0.94%
- viability, T/C [19]: 58.9%
- viability, T/C [20]: 78%
- viability, T/C [21]: 37%
- viability, T/C [22]: 2.29%
- viability, T/C [23]: 1.29%
- viability, T/C [24]: 1.22%
- viability, T/C [25]: 61.8%
- viability, T/C [26]: 69%
- viability, T/C [27]: 36.2%
- viability, T/C [28]: 1.55%
- viability, T/C [29]: 1.05%
- viability, T/C [30]: 0.85%
- viability, T/C [31]: 55.7%
- viability, T/C [32]: 62.4%
- viability, T/C [33]: 24.7%
- viability, T/C [34]: 0.91%
- viability, T/C [35]: 0.87%
- viability, T/C [36]: 1.31%
